Test results reported in publication PMC5754384, “Evaluation of carboxamide-type synthetic cannabinoids as CB1/CB2 receptor agonists: difference between the enantiomers” (Forensic Toxicology, 2017).
Entries after “also recorded” stand apart in the source; their conditions may differ.

What was measured:
human CB1 receptor = human CB1 receptor (Homo sapiens, UniProt P21554); experiment: [35S]GTPγS binding assay, CB1 receptor agonistic activity; format: biochemical; conditions: for Human CB1 receptor S/R ratio: EC50 value ratio of an (S)-enantiomer to the corresponding (R)-enantiomer; for CB1 receptor agonist activity (in words): [35S]GTPγS binding, maximum tested concentration 1.0 × 10^−4 M; for difference in the EC50 levels between the enantiomers to activate the CB1 receptor: (S)-enantiomer lower than (R)-enantiomer
Method: (§1) For the evaluation of CB1/CB2 cannabinoid receptor activity, [^35S]GTPγS binding assays were performed. These assays were performed at ADME and Tox. Research Institute, Sekisui Medical Co., Ltd. (Tokai-mura, Ibaraki, Japan).

human CB2 receptor = human CB2 receptor (Homo sapiens, UniProt P34972); experiment: [35S]GTPγS binding assay, CB2 receptor agonistic activity; format: biochemical; conditions: for Selective index (CB1/CB2): EC50 ratio of the CB1 to CB2; for Human CB2 receptor S/R ratio: EC50 value ratio of an (S)-enantiomer to the corresponding (R)-enantiomer; for EC50: Human CB2 receptor EC50, [35S]GTPγS binding, tested 1 × 10^−11 to 1 × 10^−4 M; for CB2 receptor agonist activity (in words): [35S]GTPγS binding
Method: as §1

Sequence of human CB2 receptor (P34972 whole entry): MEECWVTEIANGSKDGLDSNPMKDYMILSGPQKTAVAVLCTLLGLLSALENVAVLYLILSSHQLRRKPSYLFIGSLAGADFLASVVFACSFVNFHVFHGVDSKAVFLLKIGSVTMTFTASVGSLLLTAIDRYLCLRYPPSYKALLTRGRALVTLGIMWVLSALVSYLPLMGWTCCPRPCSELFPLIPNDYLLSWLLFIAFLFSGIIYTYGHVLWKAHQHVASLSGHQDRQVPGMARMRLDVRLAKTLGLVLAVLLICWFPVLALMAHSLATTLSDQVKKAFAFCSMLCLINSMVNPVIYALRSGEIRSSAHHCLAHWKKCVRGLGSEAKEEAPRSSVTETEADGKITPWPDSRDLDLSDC
Sequence of human CB1 receptor (P21554 whole entry): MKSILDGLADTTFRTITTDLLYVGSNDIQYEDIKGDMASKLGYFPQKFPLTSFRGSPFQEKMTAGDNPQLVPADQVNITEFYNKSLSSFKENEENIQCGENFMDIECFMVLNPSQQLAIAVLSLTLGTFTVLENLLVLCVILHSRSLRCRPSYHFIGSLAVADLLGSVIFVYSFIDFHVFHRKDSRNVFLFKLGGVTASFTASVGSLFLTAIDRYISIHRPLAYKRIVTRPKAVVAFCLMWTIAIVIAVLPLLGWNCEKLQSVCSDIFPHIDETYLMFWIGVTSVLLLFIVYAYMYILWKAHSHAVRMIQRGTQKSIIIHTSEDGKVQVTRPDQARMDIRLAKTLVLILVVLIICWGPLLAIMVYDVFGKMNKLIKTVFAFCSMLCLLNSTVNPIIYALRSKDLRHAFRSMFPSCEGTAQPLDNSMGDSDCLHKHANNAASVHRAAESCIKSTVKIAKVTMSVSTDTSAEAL

CC(C)[C@@H](NC(=O)c1nn(Cc2ccccc2F)c2ccccc12)C(N)=O [(R)AB-FUBINACA 2-fluorobenzyl isomer, (R)-N-(1-Amino-3-methyl-1-oxobutan-2-yl)-1-(2-fluorobenzyl)-1H-indazole-3-carboxamide] was tested, and the EC50 (human CB1 receptor) was 14.1 nM, the “Human CB1 receptor S/R ratio” value (human CB1 receptor) was 0.21 and the “Selective index (CB1/CB2)” value (human CB2 receptor) was 22.5. For the same compound, the “Human CB2 receptor S/R ratio” value (human CB2 receptor) was 3.9 and the EC50 (human CB2 receptor) was 0.627 nM.
With COC(=O)[C@H](NC(=O)c1cn(Cc2ccc(F)cc2)c2ccccc12)C(C)(C)C [(R)MDMB-FUBICA, Methyl (R)-2-[1-(4-fluorobenzyl)-1H-indole-3-carboxamido]-3,3-dimethylbutanoate] the EC50 (human CB1 receptor) was over 100000 nM, the “Human CB1 receptor S/R ratio” value (human CB1 receptor) was under 0.0001 and the “CB1 receptor agonist activity (in words)” value (human CB1 receptor) was “lacks CB1 receptor activity; also recorded: not confirmed; also recorded: no [^35S]GTPγS binding activity”. The “selective index of CB1/CB2” value (human CB2 receptor; CB2 over CB1, from EC50 values) was “more than 3.2 × 10^4 fold”, the “Selective index (CB1/CB2)” value (human CB2 receptor) was >30,000 and the “Human CB2 receptor S/R ratio” value (human CB2 receptor) was 0.35. The EC50 (human CB2 receptor) was 3.1 nM and the “CB2 receptor agonist activity (in words)” value (human CB2 receptor) was “function as an agonist of the CB2 receptor; also recorded: functioned only on the CB2 receptor as an agonist”.
In the case of CC(C)[C@H](NC(=O)c1nn(Cc2ccccc2F)c2ccccc12)C(N)=O [(S)AB-FUBINACA 2-fluorobenzyl isomer, (S)-N-(1-Amino-3-methyl-1-oxobutan-2-yl)-1-(2-fluorobenzyl)-1H-indazole-3-carboxamide], the EC50 (human CB1 receptor) is reported as 2.92 nM, the “Human CB1 receptor S/R ratio” value (human CB1 receptor) is reported as 0.21 and the “Selective index (CB1/CB2)” value (human CB2 receptor) is reported as 1.20. The “Human CB2 receptor S/R ratio” value (human CB2 receptor) was 3.9 and the EC50 (human CB2 receptor) was 2.44 nM.
For COC(=O)[C@@H](NC(=O)c1cn(Cc2ccc(F)cc2)c2ccccc12)C(C)(C)C [(S)MDMB-FUBICA, Methyl (S)-2-[1-(4-fluorobenzyl)-1H-indole-3-carboxamido]-3,3-dimethylbutanoate], the EC50 (human CB1 receptor) was 9.72 nM, the “Human CB1 receptor S/R ratio” value (human CB1 receptor) was under 0.0001 and the “CB1 receptor agonist activity (in words)” value (human CB1 receptor) was “could activate both of these receptors at nanomolar levels”. The “Selective index (CB1/CB2)” value (human CB2 receptor) was 9.08, the “Human CB2 receptor S/R ratio” value (human CB2 receptor) was 0.35 and the EC50 (human CB2 receptor) was 1.07 nM. For the same compound, the “CB2 receptor agonist activity (in words)” value (human CB2 receptor) was “could activate both of these receptors at nanomolar levels”.
With NC(=O)[C@@H](Cc1ccccc1)NC(=O)c1nn(CC2CCCCC2)c2ccccc12 [(R)-N-(1-Amino-1-oxo-3-phenylpropan-2-yl)-1-(cyclohexylmethyl)-1H-indazole-3-carboxamide] the EC50 (human CB1 receptor) was 33700 nM, the “Human CB1 receptor S/R ratio” value (human CB1 receptor) was 0.0074 and the “Selective index (CB1/CB2)” value (human CB2 receptor) was 68.8. The “Human CB2 receptor S/R ratio” value (human CB2 receptor) was 0.017 and the EC50 (human CB2 receptor) was 490 nM.
For CCOC(=O)[C@H](NC(=O)c1nn(CCCCCF)c2ccccc12)C(C)C [(R)5F-EMB-PINACA, Ethyl [1-(5-fluoropentyl)-1H-indazole-3-carbonyl]-D-valinate], the EC50 (human CB1 receptor) was 35.9 nM, the “Human CB1 receptor S/R ratio” value (human CB1 receptor) was 0.14 and the “Selective index (CB1/CB2)” value (human CB2 receptor) was 21.4. For the same compound, the “Human CB2 receptor S/R ratio” value (human CB2 receptor) was 4.1 and the EC50 (human CB2 receptor) was 1.68 nM.
In the case of CCOC(=O)[C@@H](NC(=O)c1nn(CCCCCF)c2ccccc12)C(C)C [(S)5F-EMB-PINACA, Ethyl [1-(5-fluoropentyl)-1H-indazole-3-carbonyl]-L-valinate], the EC50 (human CB1 receptor) is reported as 4.96 nM, the “Human CB1 receptor S/R ratio” value (human CB1 receptor) is reported as 0.14 and the “Selective index (CB1/CB2)” value (human CB2 receptor) is reported as 0.718. The “Human CB2 receptor S/R ratio” value (human CB2 receptor) was 4.1 and the EC50 (human CB2 receptor) was 6.91 nM.
CCOC(=O)[C@H](NC(=O)c1nn(Cc2ccc(F)cc2)c2ccccc12)C(C)C [(R)EMB-FUBINACA, Ethyl [1-(4-fluorobenzyl)-1H-indazole-3-carbonyl]-D-valinate] was tested, and the EC50 (human CB1 receptor) was 30.7 nM, the “Human CB1 receptor S/R ratio” value (human CB1 receptor) was 0.015 and the “Selective index (CB1/CB2)” value (human CB2 receptor) was 35.6. For the same compound, the “Human CB2 receptor S/R ratio” value (human CB2 receptor) was 2.5 and the EC50 (human CB2 receptor) was 0.863 nM.
In the case of CCOC(=O)[C@@H](NC(=O)c1nn(Cc2ccc(F)cc2)c2ccccc12)C(C)C [(S)EMB-FUBINACA, Ethyl [1-(4-fluorobenzyl)-1H-indazole-3-carbonyl]-L-valinate], the EC50 (human CB1 receptor) is reported as 0.458 nM, the “Human CB1 receptor S/R ratio” value (human CB1 receptor) is reported as 0.015 and the “Selective index (CB1/CB2)” value (human CB2 receptor) is reported as 0.214. The “Human CB2 receptor S/R ratio” value (human CB2 receptor) was 2.5 and the EC50 (human CB2 receptor) was 2.14 nM.
COC(=O)C(NC(=O)c1cn(Cc2ccc(F)cc2)c2ccccc12)C(C)(C)C (stereo not drawn) [MDMB-FUBICA, methyl 2-[1-(4-fluorobenzyl)-1H-indole-3-carboxamido]-3,3-dimethylbutanoate] was tested, and the “difference in the EC50 levels between the enantiomers to activate the CB1 receptor” value (human CB1 receptor) was “more than 10,000 fold”.
In the case of NC(=O)[C@H](Cc1ccccc1)NC(=O)c1nn(CC2CCCCC2)c2ccccc12 [(S)-N-(1-Amino-1-oxo-3-phenylpropan-2-yl)-1-(cyclohexylmethyl)-1H-indazole-3-carboxamide], the EC50 (human CB1 receptor) is reported as 251 nM, the “difference in the EC50 levels between the enantiomers to activate the CB1 receptor” value (human CB1 receptor) is reported as 134 fold and the “Human CB1 receptor S/R ratio” value (human CB1 receptor) is reported as 0.0074. For the same compound, the “Selective index (CB1/CB2)” value (human CB2 receptor) was 31.0, the “Human CB2 receptor S/R ratio” value (human CB2 receptor) was 0.017 and the EC50 (human CB2 receptor) was 8.09 nM.
